Measurements: paper PMC12684391, “Mechanistic insights into the monotherapy and combination potential of FEN1 inhibition in cancer therapy” (Nucleic Acids Research, 2025)

What was measured:
[1] = system: DLD-1, DLD-1 BRCA2KO, SUM149PT, MDA-MB-436 cells; assay: Cell cycle analysis by immunofluorescence (PCNA/DAPI); format: cell-based
Procedure: Cells were seeded at a density of 10 000 cells per well in 100 μl of media in collagen-coated 96-well plates (Revvity, #6055700). Twenty-four hours after seeding, cells were treated with the indicated doses of MSC2798778, MSC2798781, or DMSO (Apollo Scientific, BID1200) using a D300e digital dispenser (Tecan) for 24 h. Cells were washed with PBS and fixed in 4% PFA (ChemCruz, sc-281692) for 10 min at room temperature.
For immunofluorescence staining, cells were washed with PBS then blocked and permeabilized with PBS containing 0.5% BSA and 0.5% Triton X-100 (blocking buffer) for 45 min at room temperature. Cells were then stained with the indicated markers by incubation with primary antibodies (Supplementary Table S5) diluted in the blocking buffer, overnight at 4°C. […]
• Foci were quantified by setting up a contrast threshold higher than the background signal. • pKAP1 positive cells were selected using a mean intensity threshold. • Cell cycle analysis was performed by defining gates on a bivariate plot of DAPI total nuclear intensity and PCNA mean nuclear intensity. PCNA positive cells were scored as cells in S-phase. G1 and G2/M cells were scored as PCNA negative cells with differential DNA content. • PARylation and replication levels were quantified by measuring the mean nuclear fluorescence intensity, in PCNA positive cells, of poly/mono-ADP ribosylation and EdU, respectively.

[2] = system: MMEJ (resection dependent reporter); assay: Extrachromosomal MMEJ reporter assay, resection dependent, HEK-293; format: cell-based; settings: Homo sapiens, HEK293, HEK-293, 24 h, read-out: MMEJ inhibition EC50
Procedure: MMEJ resection-independent and MMEJ resection-dependent reporter assays performed as previously described. In brief, HEK-293 cells were resuspended in supplemented SF nucleofection solution (Lonza) containing nanoluciferase DNA substrate and Firefly luciferase plasmid (Promega) at a ratio of 100 μl SF: 1500 ng nanoluciferase substrate: 1000 ng Firefly plasmid: ∼1.5 × 10^6 cells. Cells were electroporated and recovered into fresh media before seeding into a 96-well plate pre-dosed with compounds and DMSO control.
After 24 h, Firefly and NanoLuc levels were detected using the Nano-Glo® Dual-Luciferase® Reporter Assay system (Promega) as per the manufacturer’s instructions. NanoLuc luminescence (reporter) was normalized to Firefly luminescence (control) to determine substrate repair. Percentage repair was calculated relative to the DMSO control.

| EC50 [2] | Compound | Cell cycle effect ([1]; 3 µM, HRD panel and EWS panel (U-2 OS, RD-ES, MHH-ES-1)) | Cell cycle effect ([1]; 24 h treatment, all four cell lines) |
| --- | --- | --- | --- |
|  | C[C@@H](Oc1nn2c(c(O)c1=O)C(=O)N1CCOC[C@@H]1C2)c1ccc2ccc(Cl)cc2c1 [MSC781] | not perturbed |  |
| 840 nM | C[C@H](Oc1nn2c(c(O)c1=O)C(=O)N1CCOC[C@@H]1C2)c1ccc2ccc(Cl)cc2c1 [MSC778] |  | titratable S-phase accumulation |
